Read-outs that look alike come from different tables or passages of the source.
How the values were obtained:
[1] = test system: enzymes from salmon intestinal fluid; test: Hydrolysis of astaxanthin diesters with enzymes from salmon intestinal fluid (Example 2); assay type: in vitro ADME, Atlantic salmon; details: after 45 hours at room temperature
Experimental: To verify the hydrolysis data for these astaxanthin diesters obtained by using the commercial lipase, another similar experiment was performed by using enzyme isolated from the intestine of Atlantic salmon.
A similar experiment as Example 1 was performed with enzymes from salmon intestinal fluid. The intestinal fluid from salmon was collected as described from cod (Lie, Ø. et al., Comp. Biochem. Physiol., 80B (3), (1985), pp. 447-450). The following results were obtained after 45 hours at room temperature: […]

[2] = test system: crude enzyme mixture from salmon intestine; test: Hydrolysis with crude enzyme mixture from salmon intestine (Example 4); assay type: in vitro ADME; details: after 48 hours hydrolysis; for Diol (%): diol = free astaxanthin
Experimental: (§1) Tris buffer (0.25 M) solution was prepared by dissolving Tris (4.54 g; 37.5 mmol) in 150 ml of distilled water. The pH of the buffer solution was adjusted to 8.0 by adding 2 M hydrochloric acid. All the hydrolysis was done at room temperature so no special effort was necessary.
(§2) The astaxanthin diester was weighed accurately (˜40 mg, […]) along with 2.5 g of chremophor EL emulsifier (from BASF) into 100 ml Erlenmeyer flask. The solution was stirred vigorously for 20 minutes (until homogeneous) and then 20 ml of the Tris buffer was added and stirred for additional 10 minutes. The solution was suction filtered and the red filtrate was poured into 25 ml volumetric flask and diluted to the mark with buffer. Concentration of all the solution was determined spectrophotometically (492 nm) to be about 1 mg/ml, except for diacetate which was obtained in a lower concentration. All the solutions were stored in refrigerator wrapped in aluminium paper.
(§3) Fresh salmon and rainbow trout, that had been fed in the last 12 hours, were obtained from local fish farms. At the laboratory the fresh fish was cut open and the crude enzyme mixture extracted as follows: From the digestion line there were a lot of narrow tubes surrounded by fat tissue. Each of them was cut off and extracted by hand into a cooled container. The viscous solution (−50 ml) was diluted to 100 ml with 0.25 M Tris buffer and stirred for 30 minutes in an ice bath. Next step was centrifugation at 11.000 rpm for 20 minutes at 4° C. (RC5C from Du Pont). The water layer was extracted by pipette to another centrifuge glasses and the centrifugation repeated at 18.000 rpm for 30 minutes at 4° C. The water layer was transferred to Erlenmeyer flask and quickly frozen by liquid nitrogen. Before starting the reaction the mixture was thawed and purified by ultracentrifuge at 27.000 rpm for 45 minutes at 4° C. (157.000 g at top). The lipase preparation was obtained as a clear yellow solution.
(§4) Into a 10 ml round bottom flask was added 2 ml of stock solution and 3 ml of crude enzyme mixture from fish intestine. The flask was filled with nitrogen before closing, wrapped in aluminium paper and stirred for 48 hours. When finished, all the water was removed under reduced pressure (0.01 Torr) and redissolved in CH2Cl2. The solution was filtered through cotton wool plug and stored under nitrogen in a closed container. Analytical TLC was used to monitor the progress of the reaction with 5% acetone in CH2Cl2 as eluent (Diol(Rf=0.0-0.1), Monoest. (Rf=0.3-0.5), Diest. (Rf=0.8-0.9)). To determine the degree of hydrolysis all the samples were injected into analytical HPLC. [Eluent: 30% acetone in n-hexane. Column: Nucleosil 50-5 (2×30 cm) column. Flow rate: 0.15 ml/min. Detector: 470 nm (Diol Rf=0.4-0.5, Monoest. Rf=0.7, Diest. Rf=0.9-1.0)].
A similar experiment as in Example 2 was performed with enzymes from salmon intestinal fluid.
The diesters that were hydrolysed were prepared by esterification of astaxanthin with the following carboxylic acids:
Acetic acid, C16:0 (palmitic acid), fatty acids from a fish oil rich in omega-3 fatty acids (approx. 18% EPA and 12% DHA, called K30 in the tables below), a concentrate of omega-3 fatty acids (approx. 30% EPA and 20% DHA, called K55 in the tables below), the same concentrate of EPA and DHA as used in example 2 (approx. 50% EPA and 35% DHA, called ACD in the tables below), purified EPA (more than 95% EPA, called EPA in the tables) and purified DHA (more than 90% DHA, called DHA in the tables).

[3] = cited from earlier work
[4] = test system: commercial lipase, Candida rugosa (Lipase AY, 30); test: Hydrolysis of astaxanthin diesters by commercial lipase
Experimental: We synthesised several other diesters in order to study whether these hydrolysed faster than the dipalmitate.
Diesters of astaxanthin were prepared with the following carboxylic acids: elaidic acid (trans-C18:1), palmitic acid (C16:0), decanoic acid (C10:0) and a concentrate of omega-3 fatty acids comprising approximately 50% eicosapentaenoic acid (EPA) (all cis C20:5 n3) and approximately 35% docosahexaenoic acid (DHA) (all cis C22:6 n3). The different diesters were firstly hydrolysed by a commercial lipase, Candida rugosa (Lipase AY, 30).

[5] = test system: crude enzyme mixture from rainbow trout intestine; test: Hydrolysis with crude enzyme mixture from rainbow trout intestine (Example 5); assay type: in vitro ADME, rainbow trout (Oncorhynchus mykiss); details: after 48 hours hydrolysis; for Diol (%): diol = free astaxanthin
Experimental: as §1, §2, §3, §4
A similar example as Example 2b was performed. However, for this Example crude enzyme preparation from rainbow trout (Oncorhynchus mykiss) was used. […] For the fish oil 37% was unreacted, while for ACD only 14% remained unreacted. As for salmon, we observe that EPA reacts faster than DHA (17 and 21% unreacted), however for rainbow trout we observe that an omega-3 concentrate like the ACD diester gives higher degree of hydrolysis than the diester of purified EPA.

Compound | Free astaxanthin (%) [1] [%] | Free astaxanthin (%) ([1]; listed as C10:0) | Free astaxanthin (%) ([1]; listed as didecanoate) | Diesters (%) [2] [%] | Monoesters (%) [2] [%] | Diol (%) [2] [%] | Diol (%) ([2]; listed as diester of astaxanthin with palmitic acid (16:0)) | pigmentation compared with the diol ([3]; literature) | absorption compared with free astaxanthin ([3]; rainbow trout, sea trout and Atlantic salmon) | Free astaxanthin (%) [4] [%] | Diesters (%) [5] [%] | Monoesters (%) [5] [%] | Diol (%) [5] [%] | Free astaxanthin (%) ([4]; after 42 hours at room temperature, commercial lipase Candida rugosa)
CCCCCCCCCC(=O)O[C@H]1CC(C)(C)C(/C=C/C(C)=C/C=C/C(C)=C/C=C/C=C(C)/C=C/C=C(C)/C=C/C2=C(C)C(=O)[C@@H](OC(=O)CCCCCCCCC)CC2(C)C)=C(C)C1=O [10:0] | 6 | hydrolysed much faster than the dipalmitate | 6 |  |  |  |  |  |  |  |  |  |  | 
CCCCCCCCCCCCCCCC(=O)O[C@H]1CC(C)(C)C(/C=C/C(C)=C/C=C/C(C)=C/C=C/C=C(C)/C=C/C=C(C)/C=C/C2=C(C)C(=O)[C@@H](OC(=O)CCCCCCCCCCCCCCC)CC2(C)C)=C(C)C1=O [16:0, astaxanthin dipalmitate, reference compound] | 1 |  |  | 81 | 19 | 0 | no free astaxanthin | less pigmentation than the diol | absorbed less easy than free astaxanthin | 40 | 71 | 18 | 11 | 
CCCCCCCCC=CCCCCCCCC(=O)OC1CC(C)(C)C(C=CC(C)=CC=CC(C)=CC=CC=C(C)C=CC=C(C)C=CC2=C(C)C(=O)C(OC(=O)CCCCCCCC=CCCCCCCCC)CC2(C)C)=C(C)C1=O (stereo not shown) [18:1] | 1 |  |  |  |  |  |  |  |  |  |  |  |  | 73
CC(=O)O [Acetate] |  |  |  | 13 | 80 | 7 |  |  |  |  | 3 | 83 | 14 | 
CC/C=C\C/C=C\C/C=C\C/C=C\C/C=C\C/C=C\CCC(=O)O[C@H]1CC(C)(C)C(/C=C/C(C)=C/C=C/C(C)=C/C=C/C=C(C)/C=C/C=C(C)/C=C/C2=C(C)C(=O)[C@@H](OC(=O)CC/C=C\C/C=C\C/C=C\C/C=C\C/C=C\C/C=C\CC)CC2(C)C)=C(C)C1=O [DHA] |  |  |  | 44 | 53 | 3 |  |  |  |  | 21 | 55 | 24 | 
CC/C=C\C/C=C\C/C=C\C/C=C\C/C=C\CCCC(=O)O[C@H]1CC(C)(C)C(/C=C/C(C)=C/C=C/C(C)=C/C=C/C=C(C)/C=C/C=C(C)/C=C/C2=C(C)C(=O)[C@@H](OC(=O)CCC/C=C\C/C=C\C/C=C\C/C=C\C/C=C\CC)CC2(C)C)=C(C)C1=O [EPA] |  |  |  | 27 | 67 | 6 |  |  |  |  | 17 | 58 | 25 | 

Reference: patent US6709688B1, “Pigment” (Norsk Hydro ASA, priority 1999, dated 2004)
